Counter-ions that a name gives are not always drawn.

The subject of experiment [1] is ATGL-KO mice. Put plainly: 18-week observer-blinded placebo-controlled treatment study. Type of experiment: in vivo, mouse. The note with it: for cardiac function (echocardiography): 14 weeks of age; for overall triglyceride content in the heart: 14 weeks old ATGL-KO mice (FIG. 8d). From the text: FIGS. 8a-8f show graphs of the in vivo validation of the drug hit efficacy on ATGL-KO mice. (FIG. 8a) Kaplan-Meier survival plot of ATGL-KO mice treated with Mefloquine (N=15), Perhexyline (N=15), Vinpocetin low dose (N=15), Vinpocetin high dose (N=15), or water alone (N=15) (FIG. 8b) Contractile function of wild type mice treated with Mefloquine (Mef), Perhexyline (Per), Vinpocetin (Vin), and water (None) at 3 weeks of age before drug treatment (black) and at 18 weeks of age (white) after drug treatment. (FIG. 8c) Contractile function of ATGL-KO mice treated with Mef, Per, Vin, and water at 3 weeks of age before drug treatment (black) and at 10 (gray), and 14 (white) weeks of age after drug treatment. (FIG. 8d) Measurement of triglyceride content in hearts of 14 weeks old wild type (WT) and ATGL-KO (KO) mice after treatment with the indicated drugs. V (H)—vinpocetin high dose, V (L)—vinpocetin low dose. (FIG. 8e) Measurement of triglyceride content in the liver, lung, and kidney of WT mice (gray) and ATGL-KO mice treated with Per (red), Mef (green), V (H) (blue), V (L) (orange), or water (black). (FIG. 8f) Quantitative PCR analysis of metabolic gene expression in the hearts of 14 weeks old ATGL-KO mice treated with water (black), Per (red), and Mef (green) and in the hearts of age-matched WT mice (gray).
We designed an 18-week observer-blinded placebo-controlled study treating both wild type and ATGL-KO mice with mefloquine, perhexyline, and high and low doses of vinpocetin starting from 3 weeks after birth. We assess the survival of each animal throughout the entire treatment course. We also measured the cardiac function of each animal before treatment and at 10 and 14 weeks of age. […] The effect of these drugs on triglyceride content was observed variably in other tissues such as liver, lung, and kidney (FIG. 8e). While these drugs were able to elicit a similar reduction in triglyceride content, they appear to do so by recruiting genes involved in distinct pathways. (FIG. 8f)

Experiment [2] concerns ATGL-KO iPSCs. Nature of the experiment: Cellular metabolism assay (OCR, ECAR). The experiment is classed as cell-based, mouse. The note with it: for extracellular acidification rate (ECAR) / oxygen consumption rate (OCR): day 9 differentiated cells pre-treated overnight at screen concentration; for OCR/ECAR ratio after addition of CCCP: pre-treated cells (FIG. 7d). As for the experimental part: (§1) FIGS. 7a-7g depict that glycolytic switch inducers modulate the metabolic profile of WT and KO iPSCs. Measurement of (FIG. 7a) oxygen consumption rate (OCR) and (FIG. 7b) extracellular acidification rate (ECAR) in WT and KO iPSCs at day 10 of differentiation following compound pre-treatment for 16 h. Data are expressed as mean±s.d. (n=10 samples, with 3 measurements each) relative to DMSO-treated WT cells. (*P<0.001, student's t-test between compound-treated and DMSO ? treated cells of same type. **P<0.001, student's t-test between DMSO-treated WT and KO cells). Measurement of OCAR/ECAR ratios for drug-treated (FIG. 7c) WT and (FIG. 7d) KO iPSCs following treatment carbonyl cyanide m-chlorophenyl hydrazone (CCCP), at the time indicated (arrow). Antimycin, an electron transport chain inhibitor, was added to each well at the end of the assay to verify that mitochondrial function was intact in drug-treated cells. A schematic model of ATGL ? mediated lipid metabolism in shown for (FIG. 7e) WT cells, (FIG. 7f) KO cells, and (FIG. 7g) drug-treated KO cells.
(§2) We next investigated whether the top-scoring compounds with reported glycolytic switch properties could in fact modulate the OCR and ECAR of differentiated WT and KO iPSCs. We pre-treated day 9 differentiated cells overnight with mefloquine, vinpocetine, and perhexyline at their screen concentrations (Table 3) and measured the changes in OCR and ECAR. […] This is consistent with the increased adaptation to glucose in ATGL-KO cells.
(§3) To determine whether the glycolytic switch inducers work through common or distinct mechanisms, we next examined how the responses of ATGL-KO and WT cells to challenge with carbonyl cyanide m-chlorophenyl hydrazone (CCCP) differed upon pre-treatment with glycolytic switch inducers. CCCP is an uncoupler of the mitochondrial hydrogen gradient that induces maximal cellular oxidative respiration (Goldsby et al., 1963). […] This was due entirely to an increase in OCAR, as the ECAR levels remained relatively unchanged (data not shown).
(§4) ATGL-KO and WT iPSCs were differentiated as EBs to day 9, then collagenase-dissociated and re-plated onto gelatin-coated XF24 plates (Seahorse Bioscience, Andover, Mass.) at a density of 250,000 cells/well. Following an overnight incubation (12-16 hrs) in differentiation medium supplemented with drugs or DMSO, the cells were acclimated to atmospheric CO2 in drug-containing buffer-free medium (Wu, M. et al., 2007) for 1 hour at 37° C. Oxygen consumption rates (OCR) and extracellular acidification rates (ECAR) were measured on the Seahorse Extracellular Flux 24 Analyzer using previously established procedures (Gohil et al., 2010; Wu, M. et al., 2007) and normalized against cell number as assessed by the resazurin assay described above. In all wells, antimycin, an electron transport chain inhibitor, was added at the end of the assay to ascertain that mitochondrial function in the drug-treated cells had been intact and that the OCR and ECAR results were not due to direct mitochondrial toxicity effects from drug treatment.

The subject of experiment [3] is WT iPSCs. Nature of the experiment: Cellular metabolism assay (OCR, ECAR). The note with it: for extracellular acidification rate (ECAR) / oxygen consumption rate (OCR): day 9 differentiated cells pre-treated overnight at screen concentration; for OCR/ECAR ratio after addition of CCCP: pre-treated cells (FIG. 7c). The experiment is classed as cell-based, mouse. On the procedure: as §1, §2, §3, §4

Experiment [4] relates to ATGL-KO iPSCs. Nature of the experiment: High throughput iPSC chemical screening, Oil Red O (ORO) lipid accumulation. The experiment is classed as cell-based, mouse. To be noted: for Rank in normalized ORO score from screen: glycolytic switch compounds; for Z-score: normalized ORO level vs DMSO-treated cells, compound present during 7 days differentiation, 96-well, negative = decrease in lipid accumulation.

Experiment [5] has as its system NLSD-M human iPSCs. Nature of the experiment: TG content in differentiated human iPSCs. The experiment is classed as cell-based. The note with it: differentiated human NLSD-M iPSCs (FIG. 9b).

Take `C1CCC(C(CC2CCCCN2)C2CCCCC2)CC1` (stereo not drawn) [Perhexiline maleate]: in experiment [1], the “cardiac function (echocardiography)” value is reported as “echocardiographic improvements in cardiac function” and the “overall triglyceride content in the heart” value (“overall triglyceride content” below) is “reduction in the overall triglyceride content in the heart”. Moreover, in experiment [2], the “impact on OCR in KO cells compared to WT cells” value is “smaller impact on OCR in KO cells compared to WT cells”, the “extracellular acidification rate (ECAR)” value is recorded as “increased ECAR”, the “oxygen consumption rate (OCR)” value is reported as “decreased OCR” and the “OCR/ECAR ratio after addition of CCCP” value is reported as “no increase in the OCR/ECAR ratio”. In addition, in experiment [3], the “extracellular acidification rate (ECAR)” value was “increased ECAR”, the “oxygen consumption rate (OCR)” value is “decreased OCR” and the “OCR/ECAR ratio after addition of CCCP” value is “no increase in the OCR/ECAR ratio”. For the same compound, in experiment [4], the “Rank in normalized ORO score from screen” value was determined as 4 and the Z-score is given as −2.3117.

For `OC(c1cc(C(F)(F)F)nc2c(C(F)(F)F)cccc12)C1CCCCN1` (stereo not drawn) [Mefloquine hydrochloride], the “intracellular lipid content (TG content)” value in experiment [5] is given as “significantly reduce intracellular lipid content”. Besides, in experiment [1], the “cardiac function (echocardiography)” value was “echocardiographic improvements in cardiac function” and the “overall triglyceride content” value is “reduction in the overall triglyceride content in the heart”. For the same compound, in experiment [2], the “extracellular acidification rate (ECAR)” value was “increased ECAR”, the “oxygen consumption rate (OCR)” value is given as “decreased OCR” and the “OCR/ECAR ratio after addition of CCCP” value is on record as “increased the ratio of OCAR/ECAR”. Besides, in experiment [3], the “extracellular acidification rate (ECAR)” value was “increased ECAR”, the “oxygen consumption rate (OCR)” value is recorded as “decreased OCR” and the “OCR/ECAR ratio after addition of CCCP” value is reported as “increased the ratio of OCAR/ECAR”. Further, in experiment [4], the “Rank in normalized ORO score from screen” value was determined as 3 and the Z-score is recorded as −2.3573.

Consider `CCOC(=O)C1=C[C@]2(CC)CCCN3CCc4c(n1c1ccccc41)[C@@H]32` [Vinpocetine], for which the “overall triglyceride content” value in experiment [1] is given as “reduction in the overall triglyceride content in the heart”. Moreover, in experiment [2], the “extracellular acidification rate (ECAR)” value was “increased ECAR”, the “oxygen consumption rate (OCR)” value is “decreased OCR” and the “OCR/ECAR ratio after addition of CCCP” value is listed as “increased the ratio of OCAR/ECAR”. Besides, in experiment [3], the “extracellular acidification rate (ECAR)” value is listed as “increased ECAR”, the “oxygen consumption rate (OCR)” value is “decreased OCR” and the “OCR/ECAR ratio after addition of CCCP” value is “increased the ratio of OCAR/ECAR”. In experiment [4], the “Rank in normalized ORO score from screen” value was 2 and the Z-score is −2.4105.

`Clc1ccc(CSC(Cn2ccnc2)c2ccc(Cl)cc2Cl)cc1` (stereo not drawn) [Sulconazole nitrate]: in experiment [4], the “Rank in normalized ORO score from screen” value turned out to be 372 and the Z-score is reported as −0.6576.

`CCC(=O)OCC(=O)[C@@]1(OC(=O)CC)[C@H](C)C[C@H]2[C@H]3[C@H]([C@@H](O)C[C@@]21C)[C@@]1(C)C=CC(=O)C=C1C[C@H]3Cl` [Alclometasone dipropionate]: the Z-score in experiment [4] is 0.9375.

In the case of `CCCCCN(CCCCC)C(=O)C(CCC(=O)O)NC(=O)c1ccc(Cl)c(Cl)c1` (stereo not drawn) [Lorglumide sodium salt], the Z-score in experiment [4] is −1.7664.

`CN1CC[C@]23c4ccccc4N[C@H]1[C@]21CCN(C)[C@H]3Nc2ccccc21` [Calycanthine]: the Z-score in experiment [4] is on record as −0.8381.

In experiment [4], `N[C@H]1CONC1=O` [(S)-(−)-Cycloserine] showed a Z-score of −0.4402.

Regarding Merbromin, in experiment [4], the “Rank in normalized ORO score from screen” value turned out to be 743 and the Z-score was 0.2933.

Consider `OC(CCN1CCCCC1)(c1ccccc1)C1CC2C=CC1C2` (stereo not drawn) [Biperiden hydrochloride], for which, in experiment [4], the “Rank in normalized ORO score from screen” value turned out to be 135 and the Z-score is recorded as −1.1752.

In the case of `CC(C)(C)NC(=O)[C@H]1CC[C@H]2[C@@H]3CC[C@H]4NC(=O)C=C[C@]4(C)[C@H]3CC[C@]12C` [Finasteride], the Z-score in experiment [4] was found to be 1.067.

In experiment [4], `CNCC(O)c1ccc(O)cc1` (racemic) [(+,−)-Synephrine] displayed a Z-score of −1.0448.

Take `Cc1cc(C(C)(C)C)c(O)c(C)c1CC1=NCCN1` [Oxymetazoline hydrochloride]: the Z-score in experiment [4] worked out at 0.1199.

With `CNCC(O)c1ccc(O)c(OC)c1.Cl` (stereo not drawn) [Metanephrine hydrochloride DL], the Z-score in experiment [4] was −1.0419.

`CCC(=O)O[C@@](Cc1ccccc1)(c1ccccc1)[C@@H](C)CN(C)C` [Levopropoxyphene napsylate] displayed a Z-score in experiment [4] of −1.0896.

On to `CC1=C(/C=C/C(C)=C/C=C/C(C)=C/C(=O)O)C(C)(C)CCC1` [Retinoic acid], for which, in experiment [4], the Z-score is −0.7042.

With `CC1(C)S[C@@H]2[C@H](NC(=O)[C@H](N)c3ccccc3)C(=O)N2[C@H]1C(=O)OC1OC(=O)c2ccccc21` (stereo partly drawn) [Talampicillin hydrochloride], the Z-score in experiment [4] is −0.9508.

Compound `Nc1cc(-c2ccncc2)c[nH]c1=O` [Amrinone] displayed a Z-score in experiment [4] of 1.535.

`CC(C)OC(=O)C(C)(C)Oc1ccc(C(=O)c2ccc(Cl)cc2)cc1` [Fenofibrate] had a Z-score in experiment [4] of −1.6051.

Take `Cl.NCC(O)c1ccc(O)cc1` (racemic) [(+,−)-Octopamine hydrochloride]: in experiment [4], the Z-score amounted to 0.9737.

As to `CN(C)CCOC(=O)C(c1ccccc1)C1(O)CCCC1` (stereo not drawn) [Cyclopentolate hydrochloride], the Z-score in experiment [4] is 1.252.

In turn, `C[n+]1cc2c3c(ccc2c2ccc4cc5c(cc4c21)OCO5)OCO3` [Sanguinarine] gave a Z-score in experiment [4] of 31.0936.

Compound `CC(=O)OCC1=C(C(=O)O)N2C(=O)[C@@H](N)[C@H]2SC1` [Cephalosporanic acid, 7-amino] yielded a Z-score in experiment [4] of 0.3224.

With `CCOC(=O)Nc1ccc2c(c1)N(C(=O)CCN1CCOCC1)c1ccccc1S2` [Moricizine hydrochloride], the Z-score in experiment [4] was −0.1525.

In experiment [4], `CCN(CC)CCNc1ccc(CO)c2sc3ccccc3c(=O)c12` [Hycanthone] yielded a Z-score of 20.1467.

Take `C=C(C)[C@@H]1[C@H]2OC(=O)[C@@H]1[C@]1(O)C[C@H]3O[C@]34C(=O)O[C@H]2[C@]14C` [Picrotoxinin]: in experiment [4], the Z-score is −0.1703.

As for `CCN(CC)CCOC(=O)C(c1ccccc1)C1CCCCC1` (stereo not drawn) [Drofenine hydrochloride], the Z-score in experiment [4] is −0.0455.

In experiment [4], `C#C[C@]1(O)CC[C@H]2[C@@H]3CCC4=CC(=O)CC[C@]4(C)[C@H]3CC[C@@]21C` [Ethisterone] displayed a Z-score of −0.2541.

Compound `C[C@]12CCC(=O)C=C1CC[C@@H]1[C@@H]2C(=O)C[C@]2(C)C(=O)CC[C@@H]12` [Adrenosterone] yielded a Z-score in experiment [4] of −1.025.

The values above are taken from patent US9393221B2, “Methods and compounds for reducing intracellular lipid storage” (THE GENERAL HOSPITAL CORPORATION, priority 2011, dated 2016).
